Among the test systems are PC-3 prostate; HCC-2998 colon; SF-539 CNS; MOLT-4 leukemia; HOP-92 NSCLC; M14 melanoma; IGROV1 ovarian; 786-0 renal; SR leukemia; MDA-MB-231 breast.
What all share (assay): growth of human tumour cells (NCI), 48 h

The structures appear in SMILES notation.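 In this assay, cells in 96-well plates receive the compound at five concentrations for 48 hours. Endpoints are linearly interpolated between the surrounding concentrations. GI50 marks 50% less growth. TGI marks complete inhibition of growth.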

Among the data in PubChem BioAssay (NCI) are TGI and GI50 values, retold here.

On to `C[C@@H](NC(C#N)c1ccco1)c1ccccc1` (stereo not given in full), for which the TGI with PC-3 prostate, with HCC-2998 colon, in the test on SF-539 CNS, in the test with MOLT-4 leukemia, with HOP-92 NSCLC and with M14 melanoma was over 100 µM in each case. Besides, the TGI in the test with IGROV1 ovarian, in the test with 786-0 renal and in the test with SR leukemia was over 100 µM throughout.
Consider `O=[N+]([O-])c1ccccc1N=Nc1c(O)[nH]c2cccc(C(F)(F)F)c12`, for which the TGI with PC-3 prostate was over 100 µM; in the test with HCC-2998 colon it was over 100 µM; in the test on MOLT-4 leukemia, over 100 µM; with MDA-MB-231 breast, 91.3 µM; in the test with M14 melanoma, over 100 µM; in the test on IGROV1 ovarian, 57.7 µM. For the same compound, the TGI worked out at 60 µM in the test with 786-0 renal and 15.7 µM with SR leukemia.
Consider `COc1cc2c(c3c1c(=O)c1ccccc1n3C)C=CC1(CCCC1)O2`, for which the TGI in the test with HCC-2998 colon is 37.7 µM; in the test with SF-539 CNS, 17.3 µM; in the test with MOLT-4 leukemia, over 100 µM; in the test with MDA-MB-231 breast, 38.2 µM; in the test on HOP-92 NSCLC, 31.7 µM; with M14 melanoma, 29.1 µM. For the same compound, the TGI in the test on IGROV1 ovarian came out at 28.4 µM; in the test with 786-0 renal, 25.1 µM; with SR leukemia, 52.8 µM.
With `CN(C)CCNC(=O)Cn1ccc(=O)c2cc([N+](=O)[O-])ccc21`, the TGI in the test with PC-3 prostate, with HCC-2998 colon, in the test with SF-539 CNS, with MOLT-4 leukemia, with HOP-92 NSCLC and in the test on M14 melanoma was over 100 µM in each case. Also, the TGI in the test with IGROV1 ovarian, in the test with 786-0 renal and in the test on SR leukemia was over 100 µM in each case.
Take `CC(=O)c1c(C(F)(F)F)n([O-])c2ccccc2[n+]1=O`: the GI50 in the test with PC-3 prostate was 1.3 µM; in the test with SF-539 CNS, 2 µM; with MOLT-4 leukemia it was 0.613 µM; in the test on MDA-MB-231 breast it was 1.27 µM; with HOP-92 NSCLC, 1.22 µM; in the test with M14 melanoma it was 1.63 µM. Besides, the figures for the GI50 with IGROV1 ovarian, in the test with 786-0 renal and with SR leukemia were 1.02 µM, 2.86 µM and 0.167 µM, respectively. In addition, the TGI in the test with PC-3 prostate was 10.8 µM; in the test with SF-539 CNS, 5.38 µM; with MOLT-4 leukemia, over 100 µM; in the test on MDA-MB-231 breast, 3.61 µM; in the test with HOP-92 NSCLC it was 4.35 µM; with M14 melanoma, 7.47 µM. Also, the TGI stood at 3.78 µM in the test on IGROV1 ovarian, 15.3 µM with 786-0 renal and 2.3 µM with SR leukemia.
In the case of `N=C1C(O)C2(I)c3ccccc3N3C(=N)C(O)C4c5ccccc5N1C4C32` (stereo not given), the TGI with PC-3 prostate was over 100 µM; with MOLT-4 leukemia it was over 100 µM; in the test with MDA-MB-231 breast it was 67.8 µM; in the test with HOP-92 NSCLC, over 100 µM; with M14 melanoma, over 100 µM; in the test with IGROV1 ovarian it was over 100 µM. In addition, the TGI in the test on 786-0 renal and with SR leukemia was over 100 µM each time.
For the compound `CCNCCNC(=O)c1ccc(I)cc1`, the TGI in the test with PC-3 prostate, in the test on HCC-2998 colon, in the test on SF-539 CNS, with MOLT-4 leukemia, in the test on HOP-92 NSCLC and in the test on M14 melanoma was over 100 µM each time. The TGI in the test with IGROV1 ovarian, in the test with 786-0 renal and in the test with SR leukemia was over 100 µM each time.
`CC(=O)Nc1ccc(-c2cc(C(=O)O)c3cc4ccccc4cc3n2)cc1`: the TGI in the test with PC-3 prostate, with SF-539 CNS, in the test on MOLT-4 leukemia, in the test on MDA-MB-231 breast, in the test on HOP-92 NSCLC and with M14 melanoma was over 100 µM in each case. In addition, the TGI in the test with IGROV1 ovarian, in the test with 786-0 renal and in the test with SR leukemia was over 100 µM each time.
On to `c1cc[c]([Sn][c]2ccccc2)cc1`, for which the GI50 was 13.8 µM in the test on HCC-2998 colon; 23.3 µM with SF-539 CNS; 19.2 µM with MOLT-4 leukemia; 19 µM in the test on HOP-92 NSCLC; 24.4 µM with M14 melanoma; 38.9 µM in the test with IGROV1 ovarian. Further, the results for the GI50 in the test on 786-0 renal and with SR leukemia were 17.4 µM and 18.6 µM, respectively. For the same compound, the TGI was 18.3 µM in the test on HCC-2998 colon; 45.5 µM with SF-539 CNS; 60.3 µM in the test on MOLT-4 leukemia; 47.5 µM in the test on HOP-92 NSCLC; 56.7 µM in the test on M14 melanoma; over 100 µM in the test on IGROV1 ovarian. Besides, the TGI worked out at 31.6 µM in the test with 786-0 renal and 45.3 µM in the test on SR leukemia.
In the case of `COc1cc(C)ccc1C(=O)c1ccc(C)cc1OC`, the GI50 with PC-3 prostate was 4.08 µM; in the test on HCC-2998 colon it was 2.87 µM; in the test on SF-539 CNS, 2.66 µM; in the test on MOLT-4 leukemia, 7.66 µM; with MDA-MB-231 breast, 7.58 µM; in the test with M14 melanoma, 1.32 µM. The GI50 in the test on IGROV1 ovarian is 6.58 µM; with 786-0 renal it was 6.29 µM; with SR leukemia it was 0.567 µM. Also, the TGI in the test with PC-3 prostate was over 100 µM; in the test with HCC-2998 colon it was 35.9 µM; in the test with SF-539 CNS, 20.6 µM; in the test on MOLT-4 leukemia it was over 100 µM; with MDA-MB-231 breast, over 100 µM; in the test with M14 melanoma it was over 100 µM. For the same compound, the TGI in the test on IGROV1 ovarian, with 786-0 renal and in the test on SR leukemia was over 100 µM throughout.
`CC(=O)OCc1c2ccccc2c(C)c2c1cc(F)c1ccccc12`: the TGI is 72.3 µM in the test on HCC-2998 colon; 59.4 µM with SF-539 CNS; 32.6 µM in the test with MOLT-4 leukemia; over 100 µM in the test on HOP-92 NSCLC; over 100 µM in the test with M14 melanoma; 75.2 µM in the test with IGROV1 ovarian. For the same compound, the TGI with 786-0 renal was 82.3 µM; with SR leukemia it was over 100 µM.
Turning to `CC12CCC(CC(=O)/C1=C(/Br)I)C2(C)C` (stereo not given), the TGI in the test on PC-3 prostate turned out to be 23.6 µM; in the test on SF-539 CNS it was 29.2 µM; in the test on MOLT-4 leukemia, 23.9 µM; in the test with MDA-MB-231 breast, 17.6 µM; in the test on HOP-92 NSCLC it was 31.6 µM; in the test on M14 melanoma it was 28.3 µM. Moreover, the TGI in the test on IGROV1 ovarian is 31.4 µM; in the test on 786-0 renal, 30.2 µM; in the test with SR leukemia it was 39 µM.
